Read-outs that look alike come from different tables or passages of the source.
Columns and labels:
CDK2 (cyclin A) = target: T1, CDK2 (cyclin A) (Homo sapiens, UniProt P24941); assay: Z'-LYTE kinase assay; type: biochemical
T1 construct: purchased Invitrogen Life Technologies (assay service)
Method: IC50 values of compounds against CDK2 (cyclin A) were determined by Z′-LYTE™ These screening assays were performed at Invitrogen Life Technologies (Grand Island, N.Y.) on a low volume NBS, black 384-well plate (#4514, Corning). 0.1 μL of 100×test compound in 100% DMSO (at specific solutions) was mixed with 2.4 μL of Kinase Buffer (50 mM HEPES pH 7.5, 0.01% BRIJ-35, 10 mM MgCl2, 1 mM EGTA), 5 μL of 2× Kinase (1.22-10.3 ng CDK2/cyclin A)/Peptide (2 μM Ser/Thr 12), and 2.5 μL of 4×ATP solution (31 μM). The plates were shaken for 30 seconds, and incubated for 60 minutes at room temperature. Development Reagent Solution (5 μL of 1:1024 dilution) was added to the plates followed with another 30-second plate shake and the plates were further incubated at room temperature for one hour. The plates were read on fluorescence plate reader with Dual emission at 445 nm and 520 nm.
The following equations were used for Z′-LYTE™ Screening Assay Data Analysis. Percent inhibition (100-% activity) was fitted to the “four-parameter logistic model” in XLfit for determination of IC50 values.

CDK4 = target: T2, CDK4 (Homo sapiens, UniProt P11802); assay: In vitro kinase inhibition IC50, luminescence (ADP Glo), retinoblastoma substrate; type: biochemical; conditions: read-out: CDK4/D1 IC50
T2 construct: purchased Invitrogen PR8064A
T2 sequence (P11802 whole entry): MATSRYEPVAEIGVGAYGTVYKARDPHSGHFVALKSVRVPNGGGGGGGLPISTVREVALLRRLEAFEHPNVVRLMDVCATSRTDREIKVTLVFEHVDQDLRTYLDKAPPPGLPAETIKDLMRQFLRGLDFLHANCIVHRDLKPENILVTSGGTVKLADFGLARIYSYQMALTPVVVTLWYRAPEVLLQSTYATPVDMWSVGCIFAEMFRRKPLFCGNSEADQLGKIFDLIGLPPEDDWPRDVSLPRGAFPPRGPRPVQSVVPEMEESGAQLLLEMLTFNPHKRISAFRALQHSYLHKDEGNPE
T2 sequence (P24385 whole entry partner): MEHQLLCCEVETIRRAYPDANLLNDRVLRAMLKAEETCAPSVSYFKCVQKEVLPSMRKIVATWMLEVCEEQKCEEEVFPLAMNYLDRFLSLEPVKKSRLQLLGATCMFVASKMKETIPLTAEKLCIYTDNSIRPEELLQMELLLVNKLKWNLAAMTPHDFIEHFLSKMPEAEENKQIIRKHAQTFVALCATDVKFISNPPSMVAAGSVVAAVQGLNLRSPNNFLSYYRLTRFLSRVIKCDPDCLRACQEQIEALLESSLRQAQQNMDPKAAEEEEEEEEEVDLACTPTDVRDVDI
Method in brief: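 Inhibition of CDK4 was quantified by ADP Glo luminescence with retinoblastoma as substrate. Reactions held 5 nM kinase, 1 μM retinoblastoma and 25 μM ATP and ran 2H at room temperature. A Synergy Neo reader took signals 15 min and 45 min after detection reagent, and percent inhibition was fitted to a four-parameter logistic model in XLfit to obtain IC50.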

CDK6 = target: T3, CDK6 (Homo sapiens, UniProt Q00534); assay: as above; type: biochemical; conditions: read-out: CDK6/D1 IC50
T3 construct: purchased Invitrogen PR8422B
T3 sequence (Q00534 whole entry): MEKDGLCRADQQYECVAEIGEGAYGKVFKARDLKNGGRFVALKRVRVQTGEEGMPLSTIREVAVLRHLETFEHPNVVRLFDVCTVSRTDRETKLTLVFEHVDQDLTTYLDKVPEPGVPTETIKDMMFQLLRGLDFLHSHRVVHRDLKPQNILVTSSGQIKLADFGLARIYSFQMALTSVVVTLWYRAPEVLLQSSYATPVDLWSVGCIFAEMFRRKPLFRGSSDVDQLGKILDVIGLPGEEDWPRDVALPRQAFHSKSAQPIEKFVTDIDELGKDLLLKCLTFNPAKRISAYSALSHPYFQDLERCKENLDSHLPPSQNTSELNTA
T3 sequence (P24385 whole entry partner): as the sequence (P24385 whole entry partner) above
Method in brief: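 IC50 derived by four-parameter logistic fit of percent inhibition, read as ADP-Glo luminescence. Reactions: 5 nM CDK6, 1 μM retinoblastoma, 25 μM ATP, test compound 0.1–200 nM final, 2 h at room temperature.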

CDK1 (cyclin B) = target: T4, CDK1 (cyclin B) (Homo sapiens, UniProt P06493); assay: Z'-LYTE kinase assay; type: biochemical
T4 construct: purchased Invitrogen Life Technologies (assay service)
T4 sequence (P06493 whole entry): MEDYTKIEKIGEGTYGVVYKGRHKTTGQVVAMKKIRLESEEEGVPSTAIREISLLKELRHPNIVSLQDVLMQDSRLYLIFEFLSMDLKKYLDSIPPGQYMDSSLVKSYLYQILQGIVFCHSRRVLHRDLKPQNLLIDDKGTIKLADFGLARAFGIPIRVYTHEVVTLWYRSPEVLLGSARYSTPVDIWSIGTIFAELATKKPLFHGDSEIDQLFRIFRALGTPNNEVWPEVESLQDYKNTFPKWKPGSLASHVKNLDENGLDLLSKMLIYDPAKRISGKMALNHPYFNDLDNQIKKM
T4 sequence (P14635 whole entry partner): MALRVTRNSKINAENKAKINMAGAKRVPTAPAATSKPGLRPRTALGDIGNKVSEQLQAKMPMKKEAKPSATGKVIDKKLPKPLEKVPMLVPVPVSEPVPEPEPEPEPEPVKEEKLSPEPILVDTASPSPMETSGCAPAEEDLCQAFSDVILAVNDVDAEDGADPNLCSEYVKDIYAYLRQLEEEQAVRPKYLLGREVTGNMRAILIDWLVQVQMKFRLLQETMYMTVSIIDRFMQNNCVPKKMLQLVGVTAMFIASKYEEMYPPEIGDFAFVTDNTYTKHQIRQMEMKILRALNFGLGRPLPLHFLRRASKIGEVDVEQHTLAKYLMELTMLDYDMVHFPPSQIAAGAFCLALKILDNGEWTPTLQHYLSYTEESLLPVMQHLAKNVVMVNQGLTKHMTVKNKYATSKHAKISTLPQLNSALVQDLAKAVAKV
Method: The plates were shaken for 30 seconds, and incubated for 60 minutes at room temperature. […] The plates were read on fluorescence plate reader with Dual emission at 445 nm and 520 nm.
The following equations were used for Z′-LYTE™ Screening Assay Data Analysis.

FMS kinase = target: T5, FMS kinase (Homo sapiens, UniProt P07333); assay: LanthaScreen Eu Kinase Binding Assay (ATP, fluorescent-PolyGT substrate); type: biochemical
T5 construct: purchased Invitrogen (Life Technologies)
T5 sequence (P07333 20-972): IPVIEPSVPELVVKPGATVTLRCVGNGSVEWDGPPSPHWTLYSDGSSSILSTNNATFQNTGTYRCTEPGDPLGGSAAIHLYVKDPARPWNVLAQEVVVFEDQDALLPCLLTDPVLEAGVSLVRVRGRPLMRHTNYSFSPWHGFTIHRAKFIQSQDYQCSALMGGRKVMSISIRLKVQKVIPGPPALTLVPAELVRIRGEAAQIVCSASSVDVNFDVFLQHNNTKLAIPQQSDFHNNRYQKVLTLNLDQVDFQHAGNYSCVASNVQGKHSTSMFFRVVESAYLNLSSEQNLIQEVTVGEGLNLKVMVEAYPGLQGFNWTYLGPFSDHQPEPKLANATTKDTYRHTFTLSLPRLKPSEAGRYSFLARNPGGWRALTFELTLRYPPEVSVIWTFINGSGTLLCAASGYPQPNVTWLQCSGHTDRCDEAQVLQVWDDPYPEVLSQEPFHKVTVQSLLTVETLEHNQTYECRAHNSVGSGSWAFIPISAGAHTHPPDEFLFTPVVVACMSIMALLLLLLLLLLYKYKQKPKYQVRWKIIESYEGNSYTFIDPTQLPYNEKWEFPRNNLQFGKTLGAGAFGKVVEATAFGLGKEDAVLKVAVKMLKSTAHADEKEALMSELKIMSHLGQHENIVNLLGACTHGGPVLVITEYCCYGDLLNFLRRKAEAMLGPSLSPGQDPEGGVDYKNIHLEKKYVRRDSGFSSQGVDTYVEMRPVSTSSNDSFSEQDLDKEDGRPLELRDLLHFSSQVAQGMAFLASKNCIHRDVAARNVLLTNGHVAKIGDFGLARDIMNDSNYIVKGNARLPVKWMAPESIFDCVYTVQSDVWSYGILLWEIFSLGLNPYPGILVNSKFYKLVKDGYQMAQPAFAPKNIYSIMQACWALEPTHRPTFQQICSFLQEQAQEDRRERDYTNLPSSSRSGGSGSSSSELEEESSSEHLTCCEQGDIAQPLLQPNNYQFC
Method in brief: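 TR-FRET read (ex 340, em 495 and 520 nm) after EDTA/Tb-labelled antibody stop; IC50 by four-parameter logistic fit of percent inhibition. Reaction: 1.25 nM FMS, 10 min compound preincubation (3-fold series), then 1 h at room temperature with 10 μM ATP and 200 nM fluorescent PolyGT.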

[1] = test system: MCF-7 breast adenocarcinoma cells; assay: Cancer cell proliferation assay, single agent (cell viability); type: cell-based; conditions: Homo sapiens, MCF7, Table 4; Rb positive; treatment 144 Hr with medium change at 72 Hr; Cell Titer-Glo or resazurin
Method in brief: (§1)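 Viability read by resazurin or CellTiter-Glo after 24 h treatment (BT-549) or 144 h with a 72 h medium change (MCF-7, DU4475). Compounds tested at 7–9 concentrations, e.g. 1.1 nM–10 μM, added the day after seeding; IC50 by nonlinear sigmoidal regression.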

[2] = test system: DU4475 breast carcinoma cells; assay: as above; type: cell-based; conditions: Homo sapiens, DU-4475; Table 4; Rb negative; treatment 144 Hr with medium change at 72 Hr; Cell Titer-Glo or resazurin
Method in brief: as §1

PI3Kδ kinase = target: T6, PI3Kδ kinase (Homo sapiens, UniProt O00329); assay: PI3Kδ kinase assay (ADP-Glo, Reaction Biology); type: biochemical
T6 construct: purchased Reaction Biology Corporation (assay service)
T6 sequence (O00329 whole entry): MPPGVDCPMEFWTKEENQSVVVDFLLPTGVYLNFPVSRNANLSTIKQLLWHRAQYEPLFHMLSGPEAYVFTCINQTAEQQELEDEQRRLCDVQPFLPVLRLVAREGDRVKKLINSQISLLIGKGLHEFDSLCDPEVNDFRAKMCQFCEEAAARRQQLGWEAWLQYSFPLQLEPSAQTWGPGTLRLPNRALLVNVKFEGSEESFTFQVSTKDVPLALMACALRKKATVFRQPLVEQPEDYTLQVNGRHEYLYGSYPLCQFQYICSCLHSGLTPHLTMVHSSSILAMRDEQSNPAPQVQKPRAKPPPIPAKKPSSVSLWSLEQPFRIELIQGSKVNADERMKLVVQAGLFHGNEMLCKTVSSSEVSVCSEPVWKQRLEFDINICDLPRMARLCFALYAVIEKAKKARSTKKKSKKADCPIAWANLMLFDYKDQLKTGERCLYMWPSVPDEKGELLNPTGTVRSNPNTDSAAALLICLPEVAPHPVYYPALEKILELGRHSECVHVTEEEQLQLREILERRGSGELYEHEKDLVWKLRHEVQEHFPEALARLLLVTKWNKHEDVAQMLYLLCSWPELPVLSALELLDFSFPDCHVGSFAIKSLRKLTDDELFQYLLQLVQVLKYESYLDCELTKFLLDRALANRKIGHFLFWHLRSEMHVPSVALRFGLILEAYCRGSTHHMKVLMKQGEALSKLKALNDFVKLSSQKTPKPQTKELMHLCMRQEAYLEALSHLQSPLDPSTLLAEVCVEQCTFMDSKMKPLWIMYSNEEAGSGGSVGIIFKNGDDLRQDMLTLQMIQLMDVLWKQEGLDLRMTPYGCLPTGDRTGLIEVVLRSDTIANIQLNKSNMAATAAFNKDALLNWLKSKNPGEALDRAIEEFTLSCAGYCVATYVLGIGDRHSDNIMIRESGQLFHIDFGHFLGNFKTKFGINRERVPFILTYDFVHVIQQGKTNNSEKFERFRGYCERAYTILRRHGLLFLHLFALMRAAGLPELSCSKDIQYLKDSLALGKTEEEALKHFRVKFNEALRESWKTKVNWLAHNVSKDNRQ
T6 sequence (P27986 whole entry partner): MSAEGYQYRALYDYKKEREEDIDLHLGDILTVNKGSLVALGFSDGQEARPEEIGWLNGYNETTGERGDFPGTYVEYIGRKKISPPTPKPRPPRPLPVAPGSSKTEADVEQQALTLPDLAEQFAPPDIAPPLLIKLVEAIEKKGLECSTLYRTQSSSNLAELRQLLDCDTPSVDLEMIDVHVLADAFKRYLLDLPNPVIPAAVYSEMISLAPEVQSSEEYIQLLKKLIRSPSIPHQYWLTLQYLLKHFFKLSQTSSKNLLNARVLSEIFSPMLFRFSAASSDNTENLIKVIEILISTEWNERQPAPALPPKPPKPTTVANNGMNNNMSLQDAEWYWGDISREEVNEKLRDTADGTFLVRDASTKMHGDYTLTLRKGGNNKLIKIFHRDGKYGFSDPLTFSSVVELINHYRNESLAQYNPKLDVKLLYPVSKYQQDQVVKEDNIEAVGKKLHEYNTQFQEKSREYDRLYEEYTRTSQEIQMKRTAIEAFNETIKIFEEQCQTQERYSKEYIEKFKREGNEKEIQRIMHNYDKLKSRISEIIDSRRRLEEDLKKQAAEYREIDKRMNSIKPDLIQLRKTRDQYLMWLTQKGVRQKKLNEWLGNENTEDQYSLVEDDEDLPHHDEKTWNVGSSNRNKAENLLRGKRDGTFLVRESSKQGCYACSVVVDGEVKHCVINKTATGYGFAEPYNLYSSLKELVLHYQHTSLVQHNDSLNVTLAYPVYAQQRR
Method in brief: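 Kinase in Tris-HCl 40 mM pH 7.5, MgCl2 20 mM, orthovanadate 3 mM, DTT 2 mM, 0.05% CHAPS, 1% DMSO, preincubated 10 min at room temperature with compound (about 0.5 nM–100 μM). ATP started a 30-min reaction at 30 °C. ADP-Glo luminescence converted to μM ADP via standard curve; IC50 from nonlinear regression.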

| SMILES | IC50 (CDK2 (cyclin A)) | IC50 (CDK4) | IC50 (CDK6) | IC50 (CDK1 (cyclin B); read-out: CDK1/B IC50) | IC50 (CDK1 (cyclin B)) | IC50 (FMS kinase) | IC50 [1] | IC50 [2] | IC50 (PI3Kδ kinase) |
| --- | --- | --- | --- | --- | --- | --- | --- | --- | --- |
| CS(=O)(=O)N1CCC(Nc2ncc3cc(C(F)F)c(=O)n(C4CC5CCC4C5)c3n2)CC1 (racemic) [Compound 401, 8-((1S,2S,4R)-bicyclo[2.2.1]heptan-2-yl)-6-(difluoromethyl)-2-((1-(methylsulfonyl)piperidin-4-yl)amino)pyrido[2,3-d]pyrimidin-7(8H)-one] | 19 nM | 4 nM | 4.5 nM | 88 nM | – | – | – | – | – |
| CS(=O)(=O)N1CCC(Nc2ncc3cc(C(F)F)c(=O)n([C@H]4C[C@H]5C[C@H]5C4)c3n2)CC1 [Compound 196, 8-((1R,3R,5S)-bicyclo[3.1.0]hexan-3-yl)-6-(difluoromethyl)-2-((1-(methylsulfonyl)piperidin-4-yl)amino)pyrido[2,3-d]pyrimidin-7(8H)-one] | 5 nM | 2.5 nM | 4.5 nM | – | 31 nM | – | – | – | – |
| Cn1ccc(S(=O)(=O)N2CCC(Nc3ncc4cc(C(F)F)c(=O)n([C@H]5C[C@@H]6CC[C@H]5C6)c4n3)CC2)n1 [Compound 395, 8-((1S,2S,4R)-bicyclo[2.2.1]heptan-2-yl)-6-(difluoromethyl)-2-((1-((1-methyl-1H-pyrazol-3-yl)sulfonyl)piperidin-4-yl)amino)pyrido[2,3-d]pyrimidin-7(8H)-one] | 18 nM | 13 nM | 11 nM | – | 66 nM | – | – | – | – |
| CN1CCC(c2ccc(Nc3ncc4cc(C#N)c(=O)n(C5CCCC5)c4n3)cc2)CC1 [Compound No. 40, 8-cyclopentyl-2-((4-(1-methylpiperidin-4-yl)phenyl)amino)-7-oxo-7,8-dihydropyrido[2,3-d]pyrimidine-6-carbonitrile] | – | > 200 nM | 76 nM | – | – | 1 nM | 133 nM | 2800 nM | 416 nM |
| CN(C)CC(=O)N1CCc2ccc(Nc3ncc4cc(C#N)c(=O)n(C5CCCC5)c4n3)cc2C1 [Compound No. 53, 8-cyclopentyl-2-((2-(dimethylglycyl)-1,2,3,4-tetrahydroisoquinolin-7-yl)amino)-7-oxo-7,8-dihydropyrido[2,3-d]pyrimidine-6-carbonitrile] | – | 2.5 nM | 4 nM | – | – | 9.5 nM | 190 nM | 1280 nM | 249 nM |
| CN(C)CC(=O)N1CCc2cc(Nc3ncc4cc(C#N)c(=O)n(C5CCCC5)c4n3)ccc2C1 [Compound No. 54, 8-cyclopentyl-2-((2-(dimethylglycyl)-1,2,3,4-tetrahydroisoquinolin-6-yl)amino)-7-oxo-7,8-dihydropyrido[2,3-d]pyrimidine-6-carbonitrile] | – | 3 nM | 3.5 nM | – | – | 7 nM | 150 nM | 1100 nM | 248 nM |
| N#Cc1cc2cnc(Nc3ccc(N4CCN5CCCC5C4)c(F)c3)nc2n(C2CCCC2)c1=O (stereo not drawn) [Compound No. 55, 8-cyclopentyl-2-((3-fluoro-4-(hexahydropyrrolo[1,2-a]pyrazin-2(1H)-yl)phenyl)amino)-7-oxo-7,8-dihydropyrido[2,3-d]pyrimidine-6-carbonitrile] | – | 6.5 nM | 16 nM | – | – | 0.6 nM | 480 nM | 1260 nM | 1690 nM |
| N#Cc1cc2cnc(Nc3ccc(N4CCNCC4=O)c(F)c3)nc2n(C2CCCC2)c1=O [Compound No. 57, 8-cyclopentyl-2-((3-fluoro-4-(2-oxopiperazin-1-yl)phenyl)amino)-7-oxo-7,8-dihydropyrido[2,3-d]pyrimidine-6-carbonitrile] | – | 6.5 nM | 12 nM | – | – | 1 nM | 1480 nM | 5180 nM | 249 nM |
| N#Cc1cc2cnc(Nc3ccc(N4CCN5CCCCC5C4)c(F)c3)nc2n(C2CCCC2)c1=O (stereo not drawn) [Compound No. 59, 8-cyclopentyl-2-((3-fluoro-4-(octahydro-2H-pyrido[1,2-a]pyrazin-2-yl)phenyl)amino)-7-oxo-7,8-dihydropyrido[2,3-d]pyrimidine-6-carbonitrile] | – | 6 nM | 22 nM | – | – | 1 nM | 540 nM | 1320 nM | 1310 nM |
| N#Cc1cc2cnc(Nc3ccn(C4CCNCC4)c(=O)c3)nc2n(C2CCCC2)c1=O [Compound No. 60, 8-cyclopentyl-7-oxo-2-((2-oxo-1-(piperidin-4-yl)-1,2-dihydropyridin-4-yl)amino)-7,8-dihydropyrido[2,3-d]pyrimidine-6-carbonitrile] | – | 52 nM | 55 nM | – | – | 18 nM | 6900 nM | 5080 nM | 34 nM |
| COCCn1cc(Nc2ncc3cc(C#N)c(=O)n(C4CCCC4)c3n2)cn1 [Compound No. 104, 8-cyclopentyl-2-((1-(2-methoxyethyl)-1H-pyrazol-4-yl)amino)-7-oxo-7,8-dihydropyrido [2,3-d] pyrimidine-6-carbonitrile] | 140 nM | > 180 nM | 56 nM | – | – | – | 1040 nM | 2520 nM | 75 nM |
| CN(C)CCn1cc(Nc2ncc3cc(C#N)c(=O)n(C4CCCC4)c3n2)cn1 [Compound No. 105, 8-cyclopentyl-2-((1-(2-(dimethylamino)ethyl)-1H-pyrazol-4-yl)amino)-7-oxo-7,8-dihydropyrido[2,3-d]pyrimidine-6-carbonitrile] | – | 69 nM | 34 nM | > 3400 nM | – | – | 675 nM | 3820 nM | 456 nM |
| CN(C)CC(=O)N1CCC(n2cc(Nc3ncc4cc(C#N)c(=O)n(C5CCCC5)c4n3)cn2)CC1 [Compound No. 202, 8-cyclopentyl-2-((1-(1-(dimethylglycyl)piperidin-4-yl)-1H-pyrazol-4-yl)amino)-7-oxo-7,8-dihydropyrido[2,3-d]pyrimidine-6-carbonitrile] | 154 nM | 58 nM | 26 nM | – | – | – | 830 nM | 3760 nM | 39 nM |
| CN1CCC(n2cc(Nc3ncc4cc(C#N)c(=O)n(C5CCCC5)c4n3)cn2)CC1 [Compound No. 325, 8-cyclopentyl-2-((1-(1-methylpiperidin-4-yl)-1H-pyrazol-4-yl)amino)-7-oxo-7,8-dihydropyrido [2,3-d] pyrimidine-6-carbonitrile] | 382 nM | 70 nM | 36 nM | – | – | – | 445 nM | 2420 nM | 22 nM |
| N#Cc1cc2cnc(Nc3nc(C4CCNCC4)cs3)nc2n(C2CCCC2)c1=O [Compound No. 327, 8-cyclopentyl-7-oxo-2-((4-(piperidin-4-yl)thiazol-2-yl)amino)-7,8-dihydropyrido [2,3-d] pyrimidine-6-carbonitrile] | – | 26 nM | 9 nM | > 5000 nM | – | – | 650 nM | 1700 nM | 5690 nM |

Reference: patent publication US20220273659A1, “HETEROCYCLIC COMPOUNDS AS KINASE INHIBITORS” (NUVATION BIO INC., priority 2019, published 2022)
